Measured values published in patent publication US20240316074A1 (priority 2021, published 2024).
In brackets after ≈: the same amount, converted by molar mass.

Experiments:
[1] = target: T1, SARS-CoV-2 spike protein S1 subunit (Severe acute respiratory syndrome coronavirus 2, UniProt P0DTC2); format: binding
T1 construct: Recombinant SARS-CoV-2 spike protein S1 subunit (˜72 kDa) containing an N-terminal His-tag; purchased RayBiotech (Peachtree Corners, GA)

[2] = target: T2, transporter ABCG2 (also called BCRP) (Homo sapiens, UniProt Q9UNQ0); details: cited from earlier work
T2 sequence (Q9UNQ0 1-655): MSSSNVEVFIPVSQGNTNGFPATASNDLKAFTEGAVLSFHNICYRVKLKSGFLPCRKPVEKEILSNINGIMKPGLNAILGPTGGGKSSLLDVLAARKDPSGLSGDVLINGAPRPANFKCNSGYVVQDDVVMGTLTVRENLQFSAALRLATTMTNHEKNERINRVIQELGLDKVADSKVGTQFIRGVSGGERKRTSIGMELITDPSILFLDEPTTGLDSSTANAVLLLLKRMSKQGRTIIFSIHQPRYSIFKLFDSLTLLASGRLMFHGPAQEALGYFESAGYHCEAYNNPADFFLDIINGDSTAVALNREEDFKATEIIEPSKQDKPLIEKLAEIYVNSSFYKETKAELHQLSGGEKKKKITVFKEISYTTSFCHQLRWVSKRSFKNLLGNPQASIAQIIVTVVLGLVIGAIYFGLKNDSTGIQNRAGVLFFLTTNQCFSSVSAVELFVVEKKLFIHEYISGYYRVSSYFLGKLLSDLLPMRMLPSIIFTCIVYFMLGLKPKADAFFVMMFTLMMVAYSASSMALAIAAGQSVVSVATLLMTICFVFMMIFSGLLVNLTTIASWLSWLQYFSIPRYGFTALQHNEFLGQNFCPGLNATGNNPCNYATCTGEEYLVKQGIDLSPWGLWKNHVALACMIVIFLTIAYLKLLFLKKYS

[3] = target: T1, SARS-CoV-2 spike protein S1 subunit; experiment: Equilibrium dissociation constants by rapid equilibrium dialysis; format: binding; details: 37° C., PBS pH 7.2
Method: Equilibrium dissociation constants. The affinity constants for the binding of active compounds to the spike protein S1 subunit were determined by rapid equilibrium dialysis. First, the optimum time for full equilibration of the RED device obtained from ThermoFisher (Waltham, MA) was determined with each of the compounds by adding 1 μM spike protein in buffer (300 μL) to the protein chamber and adding blank phosphate buffered saline, pH 7.2 (500 μL) to the buffer chamber. CBGA or CBDA was spiked into the protein chamber at a final concentration of 2.5 μM. […] After centrifugation at 18,000 g for 30 min, the supernatant was removed and ligand concentration was measured using UHPLC-MS/MS. Next, the equilibrium dissociation constants of CBGA and CBDA were determined by incubating the spike protein S1 subunit with different concentrations of the ligands ranging from 0.05-500 μM in triplicate. After 5 h for CBGA or 4 h for CBDA, the concentrations of each ligand in the sample and buffer chambers were measured using UHPLC-MS/MS as described above. Data analysis and fitting was carried out using Microsoft Excel (Seattle, WA) and KaleidaGraph v4.1 (Reading, PA).

[4] = test system: SARS-CoV-2 (WA1/2020); experiment: microbe, parasite or virus in culture; format: cell-based; details: Severe acute respiratory syndrome coronavirus 2, Vero C1008
[5] = test system: SARS-CoV-2 (WA1/2020); format: cell-based
[6] = human volunteers, oral, 0.063 mg/kg; cited from earlier work
[7] = beagle dogs, oral, 1 mg/kg; cited from earlier work
[8] = target: T3, SARS-CoV-2 S1 protein (Severe acute respiratory syndrome coronavirus 2, UniProt P0DTC2); experiment: MagMASS competition assay with SBP-1 (binding site determination)
T3 construct: Recombinant SARS-CoV-2 spike protein S1 subunit (˜72 kDa) containing an N-terminal His-tag; purchased RayBiotech (S1); LifeTein (SBP-1 peptide)

SMILES | Fold Peak Area Enrichment, Standards mixture [1] | Fold peak area enrichment [1] | binding in competitive binding MagMASS assays [1] | further results
CCCCCc1cc(O)c2c(c1)OC(C)(CCC=C(C)C)C=C2 (stereo not drawn) [CBC, Cannabichromene] | 2.9 ± 0.75 | 2.9 ± 0.75 | weak or no binding | –
C=C(C)[C@@H]1CCC(C)=C[C@H]1c1c(O)cc(CCCCC)cc1O [CBD, Cannabidiol] | 2.9 ± 0.72 | 2.9 ± 0.72 | weak or no binding | inhibition of the transporter ABCG2 [2]: inhibitors
C=C(C)[C@@H]1CCC(C)=C[C@H]1c1c(O)cc(CCCCC)cc1OC [CBD-OMe] | – | – | – | Fold Peak Area Enrichment, Pure compound [1]: 1.5 ± 0.12
C=C(C)[C@@H]1CCC(C)=C[C@H]1c1c(O)cc(CCCCC)c(C(=O)O)c1O [CBDA, Cannabidiolic acid] | 12.2 ± 0.52 | 12.2 ± 0.52 | – | Fold Peak Area Enrichment, Extract #5 [1]: 15.0 ± 0.5; Fold Peak Area Enrichment, Pure compound [1]: 15.5 ± 1.1; Kd [3]: 5.6 ± 2.2 µM; IC50 [4]: 24 µg/mL (≈ 66.9 µM); SARS-CoV-2 viral RNA in cells (anti-dsRNA staining) [5]: absence of SARS-CoV-2 viral RNA; maximum plasma concentrations [6]: 0.21 µM; bioavailability relative to CBD [7]: 2 fold; serum levels [7]: up to 1.42 μM; tolerability [7]: well tolerated; substrate of the efflux transporter ABCG2 [2]: substrate
C=C(C)[C@@H]1CCC(C)=C[C@H]1c1c(O)cc(CCC)cc1O [CBDV, Cannabidivarin] | 1.6 ± 0.17 | 1.6 ± 0.17 | – | –
CCCCCc1cc(O)c(C/C=C(\C)CCC=C(C)C)c(O)c1 [CBG, Cannabigerol] | 3.4 ± 0.82 | 3.4 ± 0.82 | weak or no binding | inhibition of the transporter ABCG2 [2]: inhibitors
CCCCCc1cc(O)c(C/C=C(\C)CCC=C(C)C)c(OC)c1 [CBG-OMe] | – | – | – | Fold Peak Area Enrichment, Pure compound [1]: 1.8 ± 0.07
CCCCCc1cc(O)c(C/C=C(\C)CCC=C(C)C)c(O)c1C(=O)O [CBGA, Cannabigerolic acid] | 20.5 ± 0.51 | 20.5 ± 0.51 | – | Fold Peak Area Enrichment, Pure compound [1]: 10.9 ± 1.3; Kd [3]: 19.8 ± 2.7 µM; IC50 [4]: 37 µg/mL (≈ 103 µM); SARS-CoV-2 viral RNA in cells (anti-dsRNA staining) [5]: absence of SARS-CoV-2 viral RNA
CCCCCc1cc(O)c2c(c1)OC(C)(C)c1ccc(C)cc1-2 [CBN, Cannabinol] | 3.4 ± 0.78 | 3.4 ± 0.78 | weak or no binding | –
CCCCCc1cc2c(c(O)c1C(=O)O)-c1cc(C)ccc1C(C)(C)O2 [CBNA, Cannabinolic acid] | – | 5.6 ± 1.4 | – | –
Cc1ccc(NC(=O)c2ccc(CN3CCN(C)CC3)cc2)cc1Nc1nccc(-c2cccnc2)n1 [Imatinib, imatinib] | – | – | – | binding to the immobilized S1 protein in the MagMASS assay [1]: no binding
CCCCCc1cc2c(c(O)c1C(=O)O)[C@@H]1C=C(C)CC[C@H]1C(C)(C)O2 [THCA-A, Tetrahydrocannabinolic acid] | 16.7 ± 2.2 | 16.7 ± 2.2 | – | Fold Peak Area Enrichment, Pure compound [1]: 19.7 ± 2.0
C=CC(C)(C)c1cc(/C=C/C(=O)c2ccc(O)cc2)c(OC)cc1O [licochalcone A] | – | – | – | binding in the presence of SBP-1 ([8]; 2.8 μM SBP-1): reduced; MagMASS peak area enrichment lowered when SBP-1 was added ([8]; SBP-1 added to incubation with active S1 protein): 3 fold
COc1c(C)c2c(c(O)c1C/C=C(\C)CCC(=O)O)C(=O)OC2 [mycophenolic acid] | – | – | – | binding to the immobilized S1 protein in the MagMASS assay [1]: no binding
CCN(CC)CCCC(C)Nc1c2ccc(Cl)cc2nc2ccc(OC)cc12 (stereo not drawn) [quinacrine] | – | – | – | binding to the immobilized S1 protein in the MagMASS assay [1]: no binding
CCCCCc1cc(O)c2c(c1)OC(C)(C)[C@@H]1CC=C(C)C[C@@H]21 [Δ^8-THC, Δ^8-Tetrahydrocannabinol] | 3.1 ± 0.81 | 3.1 ± 0.81 | weak or no binding | –
CCCCCc1cc(O)c2c(c1)OC(C)(C)[C@@H]1CCC(C)=C[C@@H]21 [Δ^9-THC, Δ^9-Tetrahydrocannabinol] | 3.0 ± 0.77 | 3.0 ± 0.77 | weak or no binding | –
